Experimental data reported in ChEMBL document CHEMBL3608219, “New geranylated flavanones from the fruits of Paulownia catalpifolia Gong Tong with their anti-proliferative activity on lung cancer cells A549” (Bioorg Med Chem Lett, 2015).

Tests used:
A549 [1] = test: Antiproliferative activity against human A549 cells by MTT assay; format: functional, cell-based
A549 [2] = test: Cell cycle arrest in human A549 cells assessed as accumulation at S phase at 10 uM after 24 hrs by flow cytometry analysis (reference value: 16.23 +/- 1.73%); format: functional
A549 [3] = test: Cell cycle arrest in human A549 cells assessed as accumulation at G2/M phase at 10 uM after 24 hrs by flow cytometry analysis (reference value: 14.18 +/- 1.03%); format: functional
A549 [4] = test: Cell cycle arrest in human A549 cells assessed as accumulation at G1 phase at 10 uM after 24 hrs by flow cytometry analysis (reference value: 68.78 +/- 2.43%); format: functional

Structure (SMILES) | IC50 (A549 [1]) | Activity (A549 [2]) | Activity (A549 [3]) | Activity (A549 [4])
C=C1C(=O)[C@]23[C@H](O)[C@H]1CC[C@H]2[C@@]12CO[C@]3(O)[C@@H](O)[C@@H]1C(C)(C)CC[C@@H]2O [ORIDONIN] | 18.7 µM |  |  | 
COc1cc(C2CC(=O)c3c(O)cc(O)c(C/C=C(\C)CCCC(C)(C)O)c3O2)cc(O)c1O (configuration not stated) | 23.7 µM |  |  | 
COc1cc(C2CC(=O)c3c(cc(O)c(C/C=C(\C)CCCC(C)(C)O)c3O)O2)cc(O)c1O (configuration not stated) | 22.1 µM |  |  | 
CC(C)=CCC/C(C)=C\Cc1c(O)c(-c2c(O)c(C/C=C(/C)CCC=C(C)C)c3c(c2O)C(=O)CC(c2ccc(O)c(O)c2)O3)c(O)c2c1OC(c1ccc(O)c(O)c1)CC2=O (configuration not stated) | 8.9 µM | 5.05% | 5.05% | 88.88%
